target: Prostaglandin G/H synthase 1 (Homo sapiens, UniProt P23219); assay: Inhibition of human COX-1; settings: not given
Sequence (P23219 whole entry): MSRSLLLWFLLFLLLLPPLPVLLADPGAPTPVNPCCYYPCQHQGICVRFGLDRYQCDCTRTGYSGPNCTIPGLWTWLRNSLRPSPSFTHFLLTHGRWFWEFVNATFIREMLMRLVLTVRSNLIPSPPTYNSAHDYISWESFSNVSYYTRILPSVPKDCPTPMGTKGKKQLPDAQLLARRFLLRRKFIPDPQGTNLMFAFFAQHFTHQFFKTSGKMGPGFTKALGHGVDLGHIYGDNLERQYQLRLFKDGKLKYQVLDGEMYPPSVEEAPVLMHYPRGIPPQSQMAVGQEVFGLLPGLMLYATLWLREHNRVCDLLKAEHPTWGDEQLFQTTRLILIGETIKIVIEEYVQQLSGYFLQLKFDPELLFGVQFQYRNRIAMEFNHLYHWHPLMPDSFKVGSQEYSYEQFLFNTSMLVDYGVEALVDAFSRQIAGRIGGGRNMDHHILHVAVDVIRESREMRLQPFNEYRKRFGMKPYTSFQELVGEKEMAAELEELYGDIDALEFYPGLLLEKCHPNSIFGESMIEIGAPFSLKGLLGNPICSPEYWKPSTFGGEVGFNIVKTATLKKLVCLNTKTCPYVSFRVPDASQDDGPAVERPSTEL

Q: For NS(=O)(=O)c1ccc(-c2cc(Cl)cc3c2OC(C(F)(F)F)C(C(=O)O)=C3)cc1 (stereo not drawn), which IC50 is on record?
A: Its IC50 is 1.74 µM.

Q: For O=C(O)C1=Cc2cc(Cl)c(Cl)c(Cl)c2OC1C(F)(F)F (stereo not drawn), which IC50 is on record?
A: The IC50 was 2.7 µM.

Q: For O=C(O)C1=Cc2cc(Cl)cc(C#Cc3ccccc3)c2OC1C(F)(F)F (stereo not drawn), which IC50 is on record?
A: Its IC50 is 33 µM.

Q: Which IC50 does the source give for O=C(O)C1=Cc2c(cc(Cl)c(Cl)c2Cl)OC1C(F)(F)F (stereo not drawn) here?
A: The IC50 was 0.88 µM.

Q: For O=C(O)C1=Cc2c(Cl)ccc(Cl)c2OC1C(F)(F)F (stereo not drawn), which IC50 is on record?
A: The IC50 was 11 µM.

Q: Which IC50 does the source give for O=C(O)C1=Cc2cc(Cl)cc(-c3ccccc3)c2OC1C(F)(F)F (stereo not drawn) here?
A: The IC50 was 3.11 µM.

Q: Which IC50 does the source give for O=C(O)C1=Cc2ccc(Cl)c(Cl)c2OC1C(F)(F)F (stereo not drawn) here?
A: Its IC50 is 300 µM.

Q: For C#Cc1cc(Cl)cc2c1OC(C(F)(F)F)C(C(=O)O)=C2 (stereo not drawn), which IC50 is on record?
A: The IC50 was under 0.35 µM.

Q: For O=C(O)C1=Cc2c(Cl)cc(Cl)cc2OC1C(F)(F)F (stereo not drawn), which IC50 is on record?
A: The IC50 was 145 µM.

Q: With O=C(O)C1=Cc2cc(Cl)ccc2OC1C(F)(F)F (stereo not drawn) as the compound, how does the IC50 read?
A: Its IC50 is 29.2 µM.

Q: Which IC50 does the source give for O=C(O)C1=Cc2cc(Cl)c(Cl)cc2OC1C(F)(F)F (stereo not drawn) here?
A: The IC50 was 94.5 µM.

Q: For C=Cc1cc(Cl)cc2c1OC(C(F)(F)F)C(C(=O)O)=C2 (stereo not drawn), which IC50 is on record?
A: The IC50 was 0.14 µM.

target: T1, Prostaglandin G/H synthase 2 (Homo sapiens, UniProt P35354); assay: Inhibition of human COX-2; settings: not given
T1 sequence (P35354 whole entry): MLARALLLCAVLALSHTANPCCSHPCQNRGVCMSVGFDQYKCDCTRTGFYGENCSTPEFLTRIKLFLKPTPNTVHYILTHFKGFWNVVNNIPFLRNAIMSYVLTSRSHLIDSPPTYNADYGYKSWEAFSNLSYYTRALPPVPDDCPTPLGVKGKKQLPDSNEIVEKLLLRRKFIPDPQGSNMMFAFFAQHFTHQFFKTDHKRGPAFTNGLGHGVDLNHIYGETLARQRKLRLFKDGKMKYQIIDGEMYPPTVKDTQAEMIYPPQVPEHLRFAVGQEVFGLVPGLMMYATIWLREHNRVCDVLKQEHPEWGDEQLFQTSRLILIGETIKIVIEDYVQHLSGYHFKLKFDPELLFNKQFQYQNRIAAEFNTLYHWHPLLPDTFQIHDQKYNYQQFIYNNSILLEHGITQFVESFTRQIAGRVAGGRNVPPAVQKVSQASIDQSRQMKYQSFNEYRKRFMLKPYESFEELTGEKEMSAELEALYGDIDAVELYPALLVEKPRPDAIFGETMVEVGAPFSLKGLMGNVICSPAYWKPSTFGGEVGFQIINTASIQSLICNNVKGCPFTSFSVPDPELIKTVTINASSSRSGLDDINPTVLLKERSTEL

Q: Which IC50 does the source give for NS(=O)(=O)c1ccc(-c2cc(Cl)cc3c2OC(C(F)(F)F)C(C(=O)O)=C3)cc1 (stereo not drawn) here?
A: Its IC50 is 0.76 µM.

Q: For O=C(O)C1=Cc2cc(Cl)c(Cl)c(Cl)c2OC1C(F)(F)F (stereo not drawn), which IC50 is on record?
A: The IC50 was 0.043 µM.

Q: With O=C(O)C1=Cc2cc(Cl)cc(C#Cc3ccccc3)c2OC1C(F)(F)F (stereo not drawn) as the compound, how does the IC50 read?
A: Its IC50 is 0.14 µM.

Q: Which IC50 does the source give for O=C(O)C1=Cc2c(cc(Cl)c(Cl)c2Cl)OC1C(F)(F)F (stereo not drawn) here?
A: The IC50 was 0.006 µM.

Q: For O=C(O)C1=Cc2c(Cl)ccc(Cl)c2OC1C(F)(F)F (stereo not drawn), which IC50 is on record?
A: The IC50 was 0.1 µM.

Q: With O=C(O)C1=Cc2cc(Cl)cc(-c3ccccc3)c2OC1C(F)(F)F (stereo not drawn) as the compound, how does the IC50 read?
A: The IC50 was 0.11 µM.

Q: For O=C(O)C1=Cc2ccc(Cl)c(Cl)c2OC1C(F)(F)F (stereo not drawn), which IC50 is on record?
A: The IC50 was 300 µM.

Q: With C#Cc1cc(Cl)cc2c1OC(C(F)(F)F)C(C(=O)O)=C2 (stereo not drawn) as the compound, how does the IC50 read?
A: The IC50 was 0.043 µM.

Q: With O=C(O)C1=Cc2c(Cl)cc(Cl)cc2OC1C(F)(F)F (stereo not drawn) as the compound, how does the IC50 read?
A: Its IC50 is 12 µM.

Q: With O=C(O)C1=Cc2cc(Cl)ccc2OC1C(F)(F)F (stereo not drawn) as the compound, how does the IC50 read?
A: Its IC50 is 0.32 µM.

Q: Which IC50 does the source give for O=C(O)C1=Cc2cc(Cl)c(Cl)cc2OC1C(F)(F)F (stereo not drawn) here?
A: Its IC50 is 0.062 µM.

Q: For C=Cc1cc(Cl)cc2c1OC(C(F)(F)F)C(C(=O)O)=C2 (stereo not drawn), which IC50 is on record?
A: Its IC50 is 0.018 µM.

target: COX-1/COX-2 (Homo sapiens) (UniProt P35354+P23219); assay: Selectivity ratio of IC50 for human COX-1 to IC50 for human COX-2; settings: not given
Sequence (P23219 whole entry, looked up, one chain of several): as the sequence (P23219 whole entry) above

Q: Which Ratio IC50 does the source give for O=C(O)C1=Cc2cc(Cl)c(Cl)c(Cl)c2OC1C(F)(F)F (stereo not drawn) here?
A: The Ratio IC50 was 63.

Q: For O=C(O)C1=Cc2c(cc(Cl)c(Cl)c2Cl)OC1C(F)(F)F (stereo not drawn), which Ratio IC50 is on record?
A: Its Ratio IC50 is 136.

Q: For O=C(O)C1=Cc2c(Cl)ccc(Cl)c2OC1C(F)(F)F (stereo not drawn), which Ratio IC50 is on record?
A: Its Ratio IC50 is 110.

Q: With O=C(O)C1=Cc2ccc(Cl)c(Cl)c2OC1C(F)(F)F (stereo not drawn) as the compound, how does the Ratio IC50 read?
A: Its Ratio IC50 is 1.

Q: With O=C(O)C1=Cc2c(Cl)cc(Cl)cc2OC1C(F)(F)F (stereo not drawn) as the compound, how does the Ratio IC50 read?
A: The Ratio IC50 was 12.

Q: For O=C(O)C1=Cc2cc(Cl)ccc2OC1C(F)(F)F (stereo not drawn), which Ratio IC50 is on record?
A: The Ratio IC50 was 90.

Q: Which Ratio IC50 does the source give for O=C(O)C1=Cc2cc(Cl)c(Cl)cc2OC1C(F)(F)F (stereo not drawn) here?
A: Its Ratio IC50 is 1520.

system: not listed separately; assay: Half life in rat; type: ADME, organism-based; settings: in vivo

Q: With O=C(O)C1=Cc2cc(Cl)cc(Cl)c2O[C@@H]1C(F)(F)F as the compound, how does the half-life read?
A: The half-life was 10.1 h.

system: not listed separately; assay: Half life in dog; type: ADME, organism-based, Canis lupus familiaris; settings: in vivo

Q: For O=C(O)C1=Cc2cc(Cl)cc(Cl)c2O[C@@H]1C(F)(F)F, which half-life is on record?
A: Its half-life is 20.4 h.

system: Rattus norvegicus; assay: Antiinflammatory activity against carrageenan-induced inflammation in Sprague-Dawley rat air pouch model assessed as reduction in PGE2 level administered 3 hrs after carrageenan challenge; type: functional; settings: not given

Q: Which “inhibition (INH)” value does the source give for Cc1ccc(-c2cc(C(F)(F)F)nn2-c2ccc(S(N)(=O)=O)cc2)cc1 [CELECOXIB] here?
A: Its value is 94%.

Q: Which “inhibition (INH)” value does the source give for O=C(O)C1=Cc2cc(Cl)ccc2OC1C(F)(F)F (stereo not drawn) here?
A: Its value is 98%.

same assay, conditions: Rattus norvegicus, Sprague-Dawley, 3 h

Q: For O=C(O)C1=Cc2cc(Cl)cc(Cl)c2O[C@@H]1C(F)(F)F, which ED50 is on record?
A: Its ED50 is 0.54 mg/kg.

system: Rattus norvegicus; assay: Antiinflammatory activity against carrageenan-induced paw edema in Sprague-Dawley rat administered 1 to 3 hrs after carrageenan challenge; type: functional; settings: not given

Q: With O=C(O)C1=Cc2cc(Cl)cc(Cl)c2O[C@@H]1C(F)(F)F as the compound, how does the ED50 read?
A: The ED50 was 7.1 mg/kg.

system: Rattus norvegicus; assay: Analgesic activity against carrageenan-induced thermal hyperalgesia in Sprague-Dawley rat assessed as paw withdrawal latency administered 1 to 3 hrs after carrageenan challenge; type: functional; settings: not given

Q: Which ED50 does the source give for O=C(O)C1=Cc2cc(Cl)cc(Cl)c2O[C@@H]1C(F)(F)F here?
A: The ED50 was 2.6 mg/kg.

Q: Which ED50 does the source give for Cc1ccc(-c2cc(C(F)(F)F)nn2-c2ccc(S(N)(=O)=O)cc2)cc1 [CELECOXIB] here?
A: The ED50 was 35 mg/kg.

Q: For O=C(O)C1=Cc2cc(Cl)ccc2OC1C(F)(F)F (stereo not drawn), which ED50 is on record?
A: The ED50 was 6 mg/kg.

organism: Rattus norvegicus; assay: Antiinflammatory effect in complete Freund's adjuvant-induced Lewis rat arthritis model assessed as reduction in paw swelling by volume displacement plethysmometry; type: functional; settings: not given

Q: Which ED50 does the source give for O=C(O)C1=Cc2cc(Cl)cc(Cl)c2O[C@@H]1C(F)(F)F here?
A: Its ED50 is 0.03 mg/kg.

Q: With Cc1ccc(-c2cc(C(F)(F)F)nn2-c2ccc(S(N)(=O)=O)cc2)cc1 [CELECOXIB] as the compound, how does the ED50 read?
A: The ED50 was 0.3 mg/kg.

Q: With O=C(O)C1=Cc2cc(Cl)ccc2OC1C(F)(F)F (stereo not drawn) as the compound, how does the ED50 read?
A: The ED50 was 0.4 mg/kg.

Reference: ChEMBL document CHEMBL1287761, “The novel benzopyran class of selective cyclooxygenase-2 inhibitors-part I: the first clinical candidate” (Bioorg Med Chem Lett, 2010)
